ChEMBL document CHEMBL1124703, “Analogues of carbamyl aspartate as inhibitors of dihydroorotase: preparation of boronic acid transition-state analogues and a zinc chelator carbamylhomocysteine” (J Med Chem, 1990)

Assays:
Details in all cases: Cricetulus griseus
[1] = target: Multifunctional protein CAD (Homo sapiens) (UniProt P27708); assay: Inhibitory activity against Dihydroorotase (DHO); no reproducible apparent Ki data
[2] = target: Multifunctional protein CAD (Homo sapiens) (UniProt P27708); assay: Inhibitory activity against Dihydroorotase (DHO) using CAD protein at concentrations >=6 mM; no inhibition was observed
NC(=O)NC(CC(=O)O)C(=O)O = assay: Kinetic constant for the inactivation of Dihydroorotase (DHO) at pH 6.0
NC(=O)NC(CCS)C(=O)O = assay: Kinetic constant for the inactivation against Dihydroorotase (DHO) at a concentration of 3 uM

Multifunctional protein CAD (Homo sapiens), sequence (P27708 whole entry): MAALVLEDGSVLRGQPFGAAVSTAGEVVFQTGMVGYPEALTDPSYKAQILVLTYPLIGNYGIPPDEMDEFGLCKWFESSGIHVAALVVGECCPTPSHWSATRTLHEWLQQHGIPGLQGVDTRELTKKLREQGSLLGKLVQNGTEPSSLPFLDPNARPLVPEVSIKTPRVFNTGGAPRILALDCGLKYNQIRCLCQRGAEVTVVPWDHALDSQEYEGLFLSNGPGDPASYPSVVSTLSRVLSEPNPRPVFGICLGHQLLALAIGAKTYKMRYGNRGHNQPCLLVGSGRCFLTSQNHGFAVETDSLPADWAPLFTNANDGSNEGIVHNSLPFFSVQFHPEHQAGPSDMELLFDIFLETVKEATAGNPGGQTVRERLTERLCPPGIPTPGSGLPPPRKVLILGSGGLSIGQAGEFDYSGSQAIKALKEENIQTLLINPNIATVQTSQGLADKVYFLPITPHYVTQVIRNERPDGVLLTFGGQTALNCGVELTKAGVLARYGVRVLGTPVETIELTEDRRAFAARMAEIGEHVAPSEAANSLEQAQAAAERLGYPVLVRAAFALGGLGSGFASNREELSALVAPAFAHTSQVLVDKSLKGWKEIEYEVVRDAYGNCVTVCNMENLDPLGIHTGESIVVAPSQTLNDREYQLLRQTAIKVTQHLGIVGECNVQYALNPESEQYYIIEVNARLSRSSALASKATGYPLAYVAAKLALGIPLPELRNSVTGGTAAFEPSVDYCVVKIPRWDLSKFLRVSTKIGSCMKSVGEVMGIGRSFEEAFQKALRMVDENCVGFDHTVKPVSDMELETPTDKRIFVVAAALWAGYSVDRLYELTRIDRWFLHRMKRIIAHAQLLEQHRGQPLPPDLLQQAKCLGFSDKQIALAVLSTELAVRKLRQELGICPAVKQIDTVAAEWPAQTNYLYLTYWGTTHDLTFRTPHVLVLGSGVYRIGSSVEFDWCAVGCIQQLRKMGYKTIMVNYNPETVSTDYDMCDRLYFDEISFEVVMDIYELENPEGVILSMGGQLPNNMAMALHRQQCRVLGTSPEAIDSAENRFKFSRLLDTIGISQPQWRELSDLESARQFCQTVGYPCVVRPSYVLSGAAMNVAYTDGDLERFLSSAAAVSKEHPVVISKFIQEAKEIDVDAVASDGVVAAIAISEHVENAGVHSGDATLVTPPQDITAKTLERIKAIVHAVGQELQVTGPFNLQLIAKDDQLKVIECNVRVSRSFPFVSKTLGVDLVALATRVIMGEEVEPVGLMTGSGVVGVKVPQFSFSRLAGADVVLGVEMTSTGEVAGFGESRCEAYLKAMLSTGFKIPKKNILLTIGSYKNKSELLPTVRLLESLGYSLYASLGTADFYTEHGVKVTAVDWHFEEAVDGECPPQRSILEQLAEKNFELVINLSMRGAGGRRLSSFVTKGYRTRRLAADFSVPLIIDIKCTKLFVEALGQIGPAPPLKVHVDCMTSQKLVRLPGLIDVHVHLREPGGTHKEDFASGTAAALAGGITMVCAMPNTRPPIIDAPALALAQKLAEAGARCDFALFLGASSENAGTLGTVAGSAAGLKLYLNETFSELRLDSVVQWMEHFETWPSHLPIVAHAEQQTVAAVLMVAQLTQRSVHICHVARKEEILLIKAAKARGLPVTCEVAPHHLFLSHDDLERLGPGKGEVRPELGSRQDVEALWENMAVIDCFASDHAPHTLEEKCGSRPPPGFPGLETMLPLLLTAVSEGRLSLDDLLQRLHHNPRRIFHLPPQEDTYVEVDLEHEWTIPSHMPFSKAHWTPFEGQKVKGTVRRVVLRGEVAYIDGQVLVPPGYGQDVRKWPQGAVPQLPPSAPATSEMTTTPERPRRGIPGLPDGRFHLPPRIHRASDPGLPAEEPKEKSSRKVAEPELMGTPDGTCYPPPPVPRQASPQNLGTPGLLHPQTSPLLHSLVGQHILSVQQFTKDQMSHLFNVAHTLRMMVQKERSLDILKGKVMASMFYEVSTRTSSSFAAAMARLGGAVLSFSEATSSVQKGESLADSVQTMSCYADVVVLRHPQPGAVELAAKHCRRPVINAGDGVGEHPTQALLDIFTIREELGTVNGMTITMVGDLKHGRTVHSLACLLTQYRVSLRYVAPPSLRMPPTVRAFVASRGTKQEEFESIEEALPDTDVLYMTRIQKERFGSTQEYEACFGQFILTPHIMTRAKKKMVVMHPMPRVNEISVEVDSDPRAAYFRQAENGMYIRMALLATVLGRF

COC(=O)C(CB(O)O)NC(N)=O (centres undefined)
inhibition [1]: no reproducible apparent Ki data

NC(=O)NC(CB(O)O)C(=O)O (centres undefined)
inhibition [2]: No inhibition

Multifunctional protein CAD (Homo sapiens), P27708
Km (NC(=O)NC(CC(=O)O)C(=O)O): 50 µM | kinact (NC(=O)NC(CCS)C(=O)O): 460000 min⁻¹
